Publication PMC9738192, “Lupane Triterpene Derivatives Improve Antiproliferative Effect on Leukemia Cells through Apoptosis Induction” (Molecules, 2022)
In brackets after ≈: the same amount, converted by molar mass.

Assays:
[1] = test system: Vero cell line; assay: Bioassay of viability in Vero cell line (SRB); type: cell-based, green monkey; settings: Chlorocebus sabaeus; Vero normal cell line, 48 h
Description: (§1) Chronic myeloid leukemia (K562; ATCC CCL-243), acute myeloid leukemia (HL60; ATCC CCL-240), and green monkey kidney cells (Vero, ATCCCCL-81) from the American Type Culture Collection (ATCC) were provided by María Antonieta Chávez Gónzalez from Unidad de Investigación Oncológica, Hospital de Oncología, Centro Médico Nacional, Instituto Mexicano del Seguro Social (IMSS, Ciudad de México, México). The K562 cell line was maintained with RPMI medium at 10% FBS, the HL60 cell line was maintained with IMDM medium at 20% FBS, and the VERO cell line was maintained with DMEM medium at 10% FBS; 1% penicillin-streptomycin was added to both cell lines and incubated at an atmosphere of culture with 95% humidity and 5% CO2 at 37 °C. All evaluation was performed between 4 and 5 cell passages.
The cells (1 × 10^4 cells/well) were seeded onto 96-well plates and incubated at 37 °C and 5% CO2 until reaching 70–80% confluence. The medium was replaced with fresh medium containing the […] different concentrations (0.1, 1, 10, and 100 μg/mL) of compounds for 48 h. After 100 μL of 10% trichloroacetic acid were added to each well, and cells were incubated for 30 min at 4 °C. Then the supernatant was removed, 100 μL of sulforhodamine B (SRB) at 0.1% with 1% of acetic acid were added, and incubated again for 15 min. Subsequently, washings were carried out with 1% acetic acid; and finally, the dye was solubilized with 200 uL of tris-base at 10 mM; and the optical density was measured at 560 nm using a GloMax spectrophotometer (Promega, WI, USA).
(§2) All cytometric data were analyzed using FlowJo^TM v10.6 software. Results of viability are expressed as the concentration of agent that reduces cell growth by 50% (IC50), calculated by GraphPad Prism 5 software. The data were expressed as means ± SEM. Statistical significance was calculated with a one-way analysis of variance (ANOVA) followed by Dunnett’s post-hoc test, applying a p < 0.05 significance level.

[2] = test system: HL60 cell line; assay: Bioassay of viability in leukemic cell lines (DAPI, flow cytometry); type: cell-based, human; settings: for IC50: Homo sapiens, HL-60, HL60, 48 h
Description: as §1
(§3) In all cases, medium with DMSO (0.1%) was used as a negative control, and etoposide was used as positive control for K562, HL60, Vero cell lines, and normal MNC. All tests were carried out in triplicate.
(§4) A total of 2 × 10^5 cells/well were cultured into 24-well plates and treated with different concentrations of four compounds (0.1, 1, 10, and 100 μg/mL) for 48 h. At the end of this time, the cells were collected and stained with 4′,6-diamidino-2-phenylindole dihydrochloride (DAPI) at 500 ng/mL for 30 min, according to manufacturer instructions, for 15 min in darkness. The samples were then analyzed by flow cytometry using a CytoFlex flow cytometer (Beckman Coulter, Indianapolis, IN, USA).
as §2

[3] = test system: K562 cell line; assay: as above; type: cell-based, human; settings: for IC50: Homo sapiens, K562, 48 h
Description: as §1, §3, §4, §2

[4] = test system: K562 cell line; assay: Assessment of mitochondrial membrane potential (rhodamine 123); type: cell-based, human; settings: 18 h, Rho-123
Protocol: Cells (1× 10^5) were cultured in 12-well plates and treated with compound 1m at two different concentrations (19.5 and 39.0 µg/mL), to later be incubated for 18 h. After this time, cells were stained with 5 μM of rhodamine 123 (Rho-123) and incubated for 30 min at 37 °C. Briefly, cells were washed with PBS and analyzed using a Cytoflex flow cytometer (Beckman Coulter, Indianapolis, IN, USA).

[5] = test system: K562 cells; assay: Apoptosis assay (annexin V-FITC / 7-AAD); type: cell-based, human
Protocol: Cells (2 × 10^5) were cultured in 24-well plates and treated with compound T1m at two different concentrations (19.5 and 39.0 µg/mL), to later be incubated for 18, 24, and 48 h. After this time, cells were washed with PBS and stained with annexin V-FITC and 7-AAD apoptosis kit (BD Bioscience) and incubated in the dark for 15 min. Then they were analyzed by CytoFlex flow cytometry (Beckman Coulter, Indianapolis, IN, USA).

[6] = test system: K562 cells; assay: Cell cycle assay (DAPI, flow cytometry); type: cell-based, human
Protocol: One million cells of K562 were cultured in 12-well plates and incubated for 18, 24, and 48 h with compound T1m at two different concentrations (19.5 and 39.0 μg/mL). After this time, the cells were collected and centrifuged at 300× g at room temperature for 5 min. The cells were resuspended in PBS, added absolute ethanol on ice, and incubated for 1 h at 4 °C. After that. Cells were centrifuged at 300× g at 4 °C for 5 min. Next, cells were washed with PBS 3% FBS and permeabilized for 20 min with 0.1% triton. After, the cells were stained with DAPI at 500 ng/mL for 1 h. After this procedure, cells were analyzed using […]. Cells analysis was carried out in an Attune flow cytometer (Thermo Fisher Scientific, Carlsbad, CA, USA).

[7] = test system: peripheral blood mononuclear cells (MNC); assay: Viability test in normal mononuclear cells (DAPI, flow cytometry); type: cell-based; settings: Homo sapiens, PBMC, 48 h
Protocol: Normal mononuclear cells were obtained from normal human peripheral blood monocytes and donated by the corresponding author (Moo-Puc) of the manuscript submitted. The MNC was purified with FicollPaque Plus (Pharmacia Biotech, Uppsala, Sweden) by centrifugation at 400× g at room temperature for 30 min according to the manufacturer’s protocol. Once the MNC were obtained, they were resuspended in RPMI medium (ATCC) with 10% FBS, and they were counted using a hemocytometer, previously stained with a trypan blue solution, verifying the viability of 95% [61].
Cells were plated at 2 × 10^5 cells/well in 24-well plates and incubated with different concentrations of compounds T1m (0.1, 1, 10, and 100 μg/mL) for 48 h. RPMI with 10% FBS was used as a culture medium for cell growth. After this time, cells were collected, washed with PBS, and stained with DAPI at 500 ng/mL for 30 min, according to manufacturer instructions. Cells analysis was carried out in a CytoFlex flow cytometer (Beckman Coulter, Indianapolis, IN, USA).
All cytometric data were analyzed using FlowJo^TM v10.6 software. […] The data were expressed as means ± SEM. Statistical significance was calculated with a one-way analysis of variance (ANOVA) followed by Dunnett’s post-hoc test, applying a p < 0.05 significance level.

[8] = test system: K562 cell line; assay: Assessment of intracellular reactive oxygen species (CM-H2DCFDA); type: cell-based, human
Protocol: Cells (1× 10^5) were cultured in 12-well plates and were stained with 10 μM of chloromethyl 2′,7′-dichlorodihydrofluorescein diacetate (CM-H2DCFDA) for 30 min at 37 °C. Briefly, the cells were treated with compound 1m at two different concentrations (19.5 and 39.0 µg/mL) and control (H2O2 at 50 µM) to later be incubated for 2 and 4 h. After this time, cells were analyzed using CytoFlex flow cytometry (Beckman Coulter, Indianapolis, IN, USA).

C=C(C)[C@@H]1CC[C@]2(C(=O)OC)CC[C@]3(C)C(CCC4[C@@]5(C)CC[C@H]6OC(C)(C)OC[C@@]6(C)C5CC[C@]43C)C12 (stereo partly drawn) [Compound T2COOMe, methyl ester of 3α,23-O-isopropylidenyl-3α,23-dihydroxylup-20(29)-en-28-oic acid]
IC50 [1]: > 200 mg/L
IC50 [2]: > 100 mg/L
IC50 [3]: > 100 mg/L

C=C(C)[C@@H]1CC[C@]2(C(=O)O)CC[C@]3(C)C(CCC4[C@@]5(C)CC[C@@H](O)[C@](C)(CO)C5CC[C@]43C)C12 (stereo partly drawn) [Compound T1, 3α,24-dihydroxylup-20(29)-en-28-oic acid]
IC50 [1]: 137.2 ± 1.1 mg/L (≈ 290 µM)
IC50 [2]: > 100 mg/L
IC50 [3]: 100 ± 1 mg/L (≈ 212 µM)
selectivity index (IS) ([3]; IC50 Vero over IC50 K562): 1.37

C=C(C)[C@@H]1CC[C@]2(C(=O)O)CC[C@]3(C)C(CCC4[C@@]5(C)CC[C@@H](OC)[C@](C)(CO)C5CC[C@]43C)C12 (stereo partly drawn) [Compound T1m, 3α-methoxy-24-hydroxylup-20(29)-en-28-oic acid]
MMP (mitochondrial membrane potential) compared with negative control ([4]; K562, 19.5 μg/mL): approximately 45%
MMP (mitochondrial membrane potential) compared with negative control ([4]; K562, 39.0 μg/mL): 67%
apoptotic cell population (positive annexin V-FITC) ([5]; K562, 19.5 μg/mL, 48 h): 11.91 ± 1.04%
apoptotic cell population (positive annexin V-FITC) ([5]; K562, 39.0 μg/mL, 18 h): 12.50 ± 0.65%
apoptotic cell population (positive annexin V-FITC) ([5]; K562, 39.0 μg/mL, 48 h): 27.47 ± 1.23%
apoptotic cell population (positive annexin V-FITC) ([5]; K562, at IC50 (39.0 μg/mL), 24 h): 24.35 ± 1.04%
IC50 [1]: 66.8 ± 1 mg/L (≈ 137 µM)
cell cycle distribution vs negative control ([6]; K562, 19.5 μg/mL, 18 h): No difference
sub-G0 population ([6]; K562, 39.0 μg/mL, 18 h): 7.29 ± 0.05%
sub-G0 population ([6]; K562, 39.0 μg/mL, 24 h): 13.30 ± 1.20%
sub-G0 population ([6]; K562, at IC50 (39.0 μg/mL), 48 h): 85.85 ± 0.15%
IC50 [2]: 68.6 ± 1.2 mg/L (≈ 141 µM)
selectivity index (IS) ([2]; IC50 MNC over IC50 HL60): 1.26
IC50 [3]: 39.5 ± 1.1 mg/L (≈ 81.1 µM)
selectivity index (IS) ([3]; IC50 MNC over IC50 K562): 2.19
selectivity index (IS) ([3]; IC50 Vero over IC50 K562): 1.69
IC50 [7]: 86.5 ± 1.2 mg/L (≈ 178 µM)
ROS increase vs negative control ([8]; K562, 19.5 μg/mL, 2 h): five-fold
ROS increase vs negative control ([8]; K562, 19.5 μg/mL, 4 h): six-fold
ROS increase vs negative control ([8]; K562, 39.0 μg/mL, 2 h): seven-fold
ROS increase vs negative control ([8]; K562, 39.0 μg/mL, 4 h): nine-fold

C=C(C)[C@@H]1CC[C@]2(C(=O)O)CC[C@]3(C)C(CCC4[C@@]5(C)CC[C@@H](OC(C)=O)[C@](C)(CO)C5CC[C@]43C)C12 (stereo partly drawn) [Compound T1Ac, 3α-acetyl-24-hydroxylup-20(29)-en-28-oic acid]
IC50 [1]: > 200 mg/L
IC50 [2]: > 100 mg/L
IC50 [3]: > 100 mg/L

C=C(C)[C@@H]1CC[C@]2(C(=O)O)CC[C@]3(C)C(CCC4[C@@]5(C)CC[C@H]6OC(C)(C)OC[C@@]6(C)C5CC[C@]43C)C12 (stereo partly drawn) [Compound T2, 3α,23-O-isopropylidenyl-3α,23-dihydroxylup-20(29)-en-28-oic acid]
IC50 [1]: > 200 mg/L
IC50 [2]: > 100 mg/L
IC50 [3]: > 100 mg/L

COc1cc([C@@H]2c3cc4c(cc3[C@@H](O[C@@H]3O[C@@H]5CO[C@@H](C)O[C@H]5[C@H](O)[C@H]3O)[C@H]3COC(=O)[C@H]23)OCO4)cc(OC)c1O [Etoposide, etoposide, reference compound]
apoptotic cell population (positive annexin V-FITC) ([5]; K562, positive control, 18 h): 13.34 ± 0.04%
apoptotic cell population (positive annexin V-FITC) ([5]; K562, positive control, 24 h): 17.91 ± 0.06%
apoptotic cell population (positive annexin V-FITC) ([5]; K562, positive control, 48 h): 32.60 ± 0.55%
IC50 [1]: 29.4 ± 1.1 mg/L (≈ 50 µM)
G2 population ([6]; K562, 14.7 μg/mL, 18 h, positive control): increase
IC50 [2]: 1.3 ± 0.3 mg/L (≈ 2.21 µM)
selectivity index (IS) ([2]; IC50 MNC over IC50 HL60): > 76.92
selectivity index (IS) ([2]; IC50 Vero over IC50 HL60): 22.63
IC50 [3]: 14.7 ± 1.2 mg/L (≈ 25 µM)
selectivity index (IS) ([3]; IC50 MNC over IC50 K562): > 6.80
selectivity index (IS) ([3]; IC50 Vero over IC50 K562): 2.00
IC50 [7]: > 100 mg/L
ROS increase vs negative control ([8]; K562, positive control, 2 h): six-fold

OO [Compound H2O2, H2O2, reference compound]
ROS increase vs negative control ([8]; K562, damage control (50 µM), 2 h): seven-fold
